In article PMC11769294, “(E)-1-(3-(3-Hydroxy-4-Methoxyphenyl)-1-(3,4,5-Trimethoxyphenyl)allyl)-1H-1,2,4-Triazole and Related Compounds: Their Synthesis and Biological Evaluation as Novel Antimitotic Agents Targeting Breast Cancer” (Pharmaceuticals, 2025):

How the values were obtained:
[1] = tested on: MCF-10A human mammary epithelial cells; assay: Cytotoxicity in MCF-10A cells (alamarBlue); assay type: cell-based; details: 10 μM, 24 h
Experimental: Figure 9 Effect of compounds 22a (A) and 22b (B) on the cell viability of non-tumorigenic MCF-10A human mammary epithelial cells at 24, 48, and 72 h. Cells were treated with the compounds 22a and 22b at concentrations of 10 μM, 1 μM, 0.5 μM, and 0.4 μM for 24, 48, or 72 h. […] Cell viability was expressed as a percentage of vehicle control (ethanol 1% (v/v)) and was determined by an alamarBlue assay (average ± SEM of three independent experiments). Two-way ANOVA (Bonferroni post-test) was used to test for statistical significance (*, p < 0.05; **, p < 0.01; ***, p < 0.001).
HL-60 cells were suspension cells and the seeding density for the viability assay was 25,000 cells/mL. MCF-7 cells (adherent) were cultured in Minimum Essential Media (MEM) with GlutaMAX™-I, supplemented with 1% (v/v) non-essential amino acids, 10% (v/v) fetal bovine serum (FBS), purchased from BD Biosciences (Edmund Halley Road, Oxford, UK), and 1% (v/v) penicillin/streptomycin 5000 U/mL. The MCF-7 cells used in the screening of the compounds during these experiments were mycoplasma-free. The seeding density of MCF-7 in the viability assay was 25,000 cells/mL and 50,000 cells/mL in the FACS assay. Normal breast cells (MCF-10A) (adherent) were cultured in Dulbecco’s Modified Eagle Medium: Nutrient Mixture F-12 (DMEM/F12; Gibco) supplemented with 5% horse serum (Invitrogen, Waltham, MA, USA), 20 ng/mL epidermal growth factor (Merck Millipore, Burlington, MA, USA), 0.5 μg/mL hydrocortisone (Sigma, Kanagawa, Japan), 100 ng/mL cholera toxin (Sigma), 10 μg/mL insulin (Sigma), and penicillin/streptomycin 5000 U/mL (1%) (Gibco, Waltham, MA, USA). […] MDA-MB-231 cells were cultured in Dulbecco’s Modified Eagle Medium, which was supplemented with 10% (v/v) fetal bovine serum (FBS) and 1% (v/v) penicillin/streptomycin 5000 U/mL. When not in use, all cells were kept in liquid nitrogen and frozen in a freezing media made of 90% FBS and 10% DMSO. All cells were grown in an atmosphere of 5% CO2/95% air in T75 culture flasks. The media was changed every 2–3 days and media was always prewarmed to 37 °C. All were sub-cultured every 3–4 days by trypsinization using TrypLE™ Express enzyme when confluence was reached to allow growth, prevent excessive cell death, and minimize the risk of infections derived by over-confluence. For the cell viability assay, the number of cells per milliliter was 25,000 cells/mL while the FACS assay utilized 50,000 cells/mL. Cells were maintained at 37 °C in 5% CO2 in a humidified incubator.
The biochemical assays were performed in triplicate and on at least three independent occasions to facilitate the determination of mean values. For the viability assay, cells were grown until 80% confluent. Adherent cells such as MCF-7, MDA-MB-231, and MCF-10A were trypsinized to detach them from the flask, counted as previously described, and seeded in 96 well plates with a seeding density of 25,000 cells /mL (200 µL of suspension in each well so that the final number of cells per well was 5000) and 1 × 10^4 cells/well seeding density for suspension HL-60 cells. Adherent cells were incubated for 24 h after being seeded in the 96 well plate and treated on the following day, while suspension cells were treated on the same day of the seeding. In both cases, the incubation time after the treatment with the drug was 72 h. After 68 h incubation, the AlamarBlue was added (20 µL in each well) and the incubation time was completed. After 72 h, the change in color was measured by spectrofluorimetry at an excitation wavelength of 544 nm and emission wavelength of 590 nm. AlamarBlue is a cell viability indicator containing a compound called resazurin. AlamarBlue is water soluble, stable in culture media, non-toxic, and is permeable through the cell membrane. When resazurin (blue) enters the live cells, it is reduced to the fluorescent molecule resorufin (pink).

MCF-7 cells = assay: Cell cycle analysis (PI, flow cytometry); assay type: cell-based, human; details: 1 μM
Experimental: Figure 10 Compound (A) 22b, (B) phenstatin 19c induced apoptosis in a time-dependent manner in MCF-7 cells. Cells were treated with either vehicle control [0.1% ethanol (v/v)] or compound 22b or phenstatin 19c (1 μM) for 24, 48, and 72 h). The data shown for the control vehicle and phenstatin are as we previously reported. Cells were fixed and stained with PI, followed by analysis using flow cytometry. Cell cycle analysis was performed on histograms of gated counts per DNA area (FL2-A). The number of cells with <2 N (sub-G1), 2 N (G0G1), and 4 N (G2/M) DNA content was determined with CellQuest software, BD CellQuest Pro. Values are represented as the mean ± SEM for three separate experiments. Two-way ANOVA (Bonferroni post-test) was used to test for statistical significance (*, p < 0.05; **, p < 0.01; ***, p < 0.001).
Cells (MCF-7 and MDA-MD 231) were seeded at a density of 1 × 10^5 cells/well in 6-well plates (volume of 3 mL per well) and treated with selected compound 22b and phenstatin (19c) (1 μM), as previously reported. The time points used were 24, 48, or 72 h. Ethanol was used as the vehicle. At each time point, the media was removed and then the well was carefully rinsed with PBS and TrypLE™ Express enzyme (200 µL) was added to detach the adherent cells. The cells were collected by trypsinization and were then centrifuged at 800× g for 15 min. Cells were washed with ice-cold phosphate-buffered saline (PBS) ×2 and fixed in ice-cold 70% ethanol for 14 h at −20 °C. Fixed cells were centrifuged at 800× g for 15 min. The samples were then treated with 12.5 µL of DNase-free RNAse A (10 mg/mL) together with […] of PI (1 mg/mL) at 37 °C for 30 min, vortexed, and wrapped in tin foil. The DNA content of cells (10,000 cells/selected experimental group) was determined by flow cytometry at 488 nm with a FACSCalibur flow cytometer (BD Biosciences, San Jose, CA, USA) using the CellQuest Software (Becton-Dickinson, East Rutherford, NJ, USA). Each experiment was performed on three separate occasions.

Q: Which results are given for COc1ccc(/C=C/C(c2cc(OC)c(OC)c(OC)c2)n2cncn2)cc1O (stereo not shown) [Compound 22b, (E)-5-(3-(1H-1,2,4-Triazol-1-yl)-3-(3,4,5-trimethoxyphenyl)prop-1-en-1-yl)-2-methoxyphenol]?
A: cell death [1]: approximately 50%; cells in G2/M phase (MCF-7 cells; 24 h): 35%; cells in apoptosis (sub-G1) (MCF-7 cells; 24 h): 14%; cells in G2/M phase (MCF-7 cells; 48 h): 26%; cells in apoptosis (sub-G1) (MCF-7 cells; 48 h): 23%; cells in G2/M phase (MCF-7 cells; 72 h): 23%; cells in apoptosis (sub-G1) (MCF-7 cells; 72 h): 31%
